From ChEMBL document CHEMBL1136816, “Synthesis and evaluation of ether and halogenated derivatives of mannopeptimycin glycopeptide antibiotics” (2003)
Values after ≈ are worked out from the molar mass of the structure shown.

Key:
Type in all cases: functional
Staphylococcus aureus [1] = test: In vitro minimum inhibitory concentration against Staphylococcus aureus; 4-8
Enterococcus sp. [2] = test: In vitro minimum inhibitory concentration against Enterococcus species; 8-16
Streptococcus sp. [3] = test: In vitro minimum inhibitory concentration against Streptococcus species; 0.5-2
Enterococcus sp. [4] = test: In vitro minimum inhibitory concentration against Enterococcus species
Streptococcus sp. [5] = test: In vitro minimum inhibitory concentration against Streptococcus species
Staphylococcus aureus [6] = test: In vitro minimum inhibitory concentration against Staphylococcus aureus
Streptococcus sp. [7] = test: In vitro minimum inhibitory concentration against Streptococcus species; </=0.06-5
Enterococcus sp. [8] = test: In vitro minimum inhibitory concentration against Enterococcus species 2-8
Staphylococcus aureus [9] = test: In vitro minimum inhibitory concentration against Staphylococcus aureus; 1-2
Enterococcus sp. [10] = test: In vitro minimum inhibitory concentration against Enterococcus species; 2-4
Streptococcus sp. [11] = test: In vitro minimum inhibitory concentration against Streptococcus species; 0.12-0.5
Staphylococcus aureus [12] = test: In vitro minimum inhibitory concentration against Staphylococcus aureus; 2-4
Streptococcus sp. [13] = test: In vitro minimum inhibitory concentration against Streptococcus species; 8-32
Staphylococcus aureus [14] = test: In vitro minimum inhibitory concentration against Staphylococcus aureus; 32-64
Enterococcus sp. [15] = test: In vitro minimum inhibitory concentration against Enterococcus species; 32->64
Streptococcus sp. [16] = test: In vitro minimum inhibitory concentration against Streptococcus species; </=0.06-2
Enterococcus sp. [17] = test: In vitro minimum inhibitory concentration against Enterococcus species; 4-16
Enterococcus sp. [18] = test: In vitro minimum inhibitory concentration against Enterococcus species; 0.5->64

C[C@@H](c1ccccc1)[C@@H]1NC(=O)CNC(=O)[C@H](CO)NC(=O)[C@@H]([C@@H](O)[C@@H]2CN=C(N)N2[C@H]2O[C@H](CO)[C@@H](O)[C@H](O)[C@@H]2O)NC(=O)[C@H]([C@@H](O)[C@@H]2CN=C(N)N2)NC(=O)[C@@H](Cc2ccc(O[C@H]3O[C@H](CO)[C@@H](O[C@H]4O[C@H](COC/C=C/c5ccccc5)[C@@H](O)[C@H](O)[C@@H]4O)[C@H](O)[C@@H]3O)cc2)NC1=O
MIC (Staphylococcus aureus [1]): 4 µg/mL (≈ 2.83 µM) | MIC (Enterococcus sp. [2]): 8 µg/mL (≈ 5.67 µM) | MIC (Streptococcus sp. [3]): 0.5 µg/mL (≈ 0.354 µM)

C[C@@H](c1ccccc1)[C@@H]1NC(=O)CNC(=O)[C@H](CO)NC(=O)[C@@H]([C@@H](O)[C@@H]2CN=C(N)N2[C@H]2O[C@H](CO)[C@@H](O)[C@H](O)[C@@H]2O)NC(=O)[C@H]([C@@H](O)[C@@H]2CN=C(N)N2)NC(=O)[C@@H](Cc2ccc(O[C@H]3O[C@H](CO)[C@@H](O[C@H]4O[C@H](CO)[C@@H](O)[C@H](O)[C@@H]4O)[C@H](O)[C@@H]3O)c(I)c2)NC1=O
MIC (Enterococcus sp. [4]): > 128 µg/mL | MIC (Streptococcus sp. [5]): > 128 µg/mL | MIC (Staphylococcus aureus [6]): > 128 µg/mL

COc1ccc2cc(COC[C@H]3O[C@H](O[C@H]4[C@H](O)[C@H](O)[C@@H](Oc5ccc(C[C@H]6NC(=O)[C@H]([C@@H](C)c7ccccc7)NC(=O)CNC(=O)[C@H](CO)NC(=O)C(C(O)[C@@H]7CN=C(N)N7[C@H]7O[C@H](CO)[C@@H](O)[C@H](O)[C@@H]7O)NC(=O)[C@H]([C@@H](O)[C@@H]7CN=C(N)N7)NC6=O)cc5)O[C@@H]4CO)[C@@H](O)[C@@H](O)[C@@H]3O)ccc2c1 (stereo partly specified)
MIC (Streptococcus sp. [7]): ≤ 0.06 µg/mL | MIC (Enterococcus sp. [8]): 2 µg/mL (≈ 1.36 µM) | MIC (Staphylococcus aureus [9]): 1 µg/mL (≈ 0.682 µM)

CCCOc1ccc(COC[C@H]2O[C@H](O[C@H]3[C@H](O)[C@H](O)[C@@H](Oc4ccc(C[C@H]5NC(=O)[C@H]([C@@H](C)c6ccccc6)NC(=O)CNC(=O)[C@H](CO)NC(=O)[C@@H]([C@@H](O)[C@@H]6CN=C(N)N6[C@H]6O[C@H](CO)[C@@H](O)[C@H](O)[C@@H]6O)NC(=O)[C@H]([C@@H](O)[C@@H]6CN=C(N)N6)NC5=O)cc4)O[C@@H]3CO)[C@@H](O)[C@@H](O)[C@@H]2O)cc1
MIC (Streptococcus sp. [5]): ≤ 0.06 µg/mL | MIC (Enterococcus sp. [10]): 2 µg/mL (≈ 1.39 µM) | MIC (Staphylococcus aureus [9]): 1 µg/mL (≈ 0.693 µM)

Cc1ccc(COC[C@H]2O[C@H](O[C@H]3[C@H](O)[C@H](O)[C@@H](Oc4ccc(C[C@H]5NC(=O)[C@H]([C@@H](C)c6ccccc6)NC(=O)CNC(=O)[C@H](CO)NC(=O)[C@@H]([C@@H](O)[C@@H]6CN=C(N)N6[C@H]6O[C@H](CO)[C@@H](O)[C@H](O)[C@@H]6O)NC(=O)[C@H]([C@@H](O)[C@@H]6CN=C(N)N6)NC5=O)cc4)O[C@@H]3CO)[C@@H](O)[C@@H](O)[C@@H]2O)cc1
MIC (Streptococcus sp. [11]): 0.12 µg/mL (≈ 0.0857 µM) | MIC (Enterococcus sp. [10]): 2 µg/mL (≈ 1.43 µM) | MIC (Staphylococcus aureus [6]): 2 µg/mL (≈ 1.43 µM)

C[C@@H](c1ccccc1)[C@@H]1NC(=O)CNC(=O)[C@H](CO)NC(=O)[C@@H]([C@@H](O)[C@@H]2CN=C(N)N2[C@H]2O[C@H](CO)[C@@H](O)[C@H](O)[C@@H]2O)NC(=O)[C@H]([C@@H](O)[C@@H]2CN=C(N)N2)NC(=O)[C@@H](Cc2ccc(O[C@H]3O[C@H](CO)[C@@H](O[C@H]4O[C@H](CO)[C@@H](OCC=C(c5ccccc5)c5ccccc5)[C@H](O)[C@@H]4O)[C@H](O)[C@@H]3O)cc2)NC1=O
MIC (Streptococcus sp. [5]): ≤ 0.06 µg/mL | MIC (Enterococcus sp. [10]): 2 µg/mL (≈ 1.34 µM) | MIC (Staphylococcus aureus [12]): 2 µg/mL (≈ 1.34 µM)

C[C@@H](c1ccccc1)[C@@H]1NC(=O)CNC(=O)[C@H](CO)NC(=O)[C@@H]([C@@H](O)[C@@H]2CN=C(N)N2[C@H]2O[C@H](CO)[C@@H](O)[C@H](O)[C@@H]2O)NC(=O)[C@H]([C@@H](O)[C@@H]2CN=C(N)N2)NC(=O)[C@@H](Cc2ccc(O[C@H]3O[C@H](CO)[C@@H](O[C@H]4O[C@H](COC/C=C/c5ccc(N(C)C)cc5)[C@@H](O)[C@H](O)[C@@H]4O)[C@H](O)[C@@H]3O)cc2)NC1=O
MIC (Streptococcus sp. [13]): 8 µg/mL (≈ 5.5 µM) | MIC (Staphylococcus aureus [14]): 32 µg/mL (≈ 22 µM) | MIC (Enterococcus sp. [15]): 32 µg/mL (≈ 22 µM)

COc1ccc(CO[C@H]2[C@H](O)[C@H](O)[C@@H](O[C@H]3[C@H](O)[C@H](O)[C@@H](Oc4ccc(C[C@H]5NC(=O)[C@H]([C@@H](C)c6ccccc6)NC(=O)CNC(=O)[C@H](CO)NC(=O)[C@@H]([C@@H](O)[C@@H]6CN=C(N)N6[C@H]6O[C@H](CO)[C@@H](O)[C@H](O)[C@@H]6O)NC(=O)[C@H]([C@@H](O)[C@@H]6CN=C(N)N6)NC5=O)cc4)O[C@@H]3CO)O[C@@H]2CO)cc1OCc1ccccc1
MIC (Streptococcus sp. [16]): ≤ 0.06 µg/mL | MIC (Enterococcus sp. [17]): 4 µg/mL (≈ 2.63 µM) | MIC (Staphylococcus aureus [12]): 2 µg/mL (≈ 1.31 µM)

CN[C@H](CC(C)C)C(=O)N[C@H]1C(=O)N[C@@H](CC(N)=O)C(=O)N[C@H]2C(=O)N[C@H]3C(=O)N[C@H](C(=O)N[C@H](C(=O)O)c4cc(O)cc(O)c4-c4cc3ccc4O)[C@H](O)c3ccc(c(Cl)c3)Oc3cc2cc(c3O[C@@H]2O[C@H](CO)[C@@H](O)[C@H](O)[C@H]2O[C@H]2C[C@](C)(N)[C@H](O)[C@H](C)O2)Oc2ccc(cc2Cl)[C@H]1O [VANCOMYCIN]
MIC (Streptococcus sp. [11]): 0.12 µg/mL (≈ 0.0828 µM) | MIC (Enterococcus sp. [18]): 0.5 µg/mL (≈ 0.345 µM)
